From paper PMC3758111 (Planta medica, 2013)
Like-named read-outs stand apart in the source and are kept apart here.

Experiments:
[1] = test system: prostaglandin E (2) production in lipopolysaccharide-stimulated RAW264.7 macrophages; settings: cited from earlier work
Caco-2 cells [2] = assay: Glucuronidation by Caco-2 cells; settings: for Compartments in which glucuronide metabolites were found: pure compound, 25 μM applied apically
[3] = test system: nitric oxide production in lipopolysaccharide-stimulated RAW264.7 macrophages; settings: cited from earlier work
Caco-2 cell monolayers = assay: Transepithelial transfer across Caco-2 cell monolayers; assay type: in vitro ADME, human; settings: for Concentration dependency of uptake / Permeation rates at 37 °C compared with 4 °C: pure compounds; for Permeation rates at 37 °C compared with 4 °C: AP-BL
[4] = as above; assay type: in vitro ADME, human; settings: human
[5] = 3 h after oral 60% ethanolic extract of E. angustifolia containing 0.4–2 mg of Bauer alkamide 8 and 10; cited from earlier work
[6] = target: P-glycoprotein transporter (P-gp) (Homo sapiens, UniProt P08183); assay: P-gp assay: calcein-AM efflux in Caco-2 cells; assay type: cell-based; settings: for Concentration that significantly inhibited P-gp activity: single compounds, calcein-AM, Caco-2, p < 0.05
[7] = incubation with NADPH and human liver microsomes; cited from earlier work
[8] = rats, oral, as pure compound or in E. purpurea root extract; cited from earlier work
Caco-2 cells [9] = assay: Cytotoxicity of pure compounds and extracts to Caco-2 cells; assay type: cell-based, human; settings: vs control 0.3% v/v DMSO in DMEM, p < 0.05; tested 10–1000 μM
[10] = 100 μM, 72 h, 37°C, RPMI 1640 medium; cited from earlier work
Caco-2 monolayers = settings: extracted and isolated from E. pallida roots; cited from earlier work
[11] = test system: multidrug transporter P-glycoprotein (P-gp); settings: isolated from E. pallida; human proximal tubular kidney cells; cited from earlier work
[12] = Caco-2, pH 7.4, Papp, After, single compound, 10–100 μM, subsequent to deconjugation with β-glucuronidase, n=9
[13] = Caco-2, pH 7.4, Papp, Before, single compound, 10–100 μM, prior to deconjugation with β-glucuronidase, n=9

P-glycoprotein transporter (P-gp), sequence (P08183 whole entry): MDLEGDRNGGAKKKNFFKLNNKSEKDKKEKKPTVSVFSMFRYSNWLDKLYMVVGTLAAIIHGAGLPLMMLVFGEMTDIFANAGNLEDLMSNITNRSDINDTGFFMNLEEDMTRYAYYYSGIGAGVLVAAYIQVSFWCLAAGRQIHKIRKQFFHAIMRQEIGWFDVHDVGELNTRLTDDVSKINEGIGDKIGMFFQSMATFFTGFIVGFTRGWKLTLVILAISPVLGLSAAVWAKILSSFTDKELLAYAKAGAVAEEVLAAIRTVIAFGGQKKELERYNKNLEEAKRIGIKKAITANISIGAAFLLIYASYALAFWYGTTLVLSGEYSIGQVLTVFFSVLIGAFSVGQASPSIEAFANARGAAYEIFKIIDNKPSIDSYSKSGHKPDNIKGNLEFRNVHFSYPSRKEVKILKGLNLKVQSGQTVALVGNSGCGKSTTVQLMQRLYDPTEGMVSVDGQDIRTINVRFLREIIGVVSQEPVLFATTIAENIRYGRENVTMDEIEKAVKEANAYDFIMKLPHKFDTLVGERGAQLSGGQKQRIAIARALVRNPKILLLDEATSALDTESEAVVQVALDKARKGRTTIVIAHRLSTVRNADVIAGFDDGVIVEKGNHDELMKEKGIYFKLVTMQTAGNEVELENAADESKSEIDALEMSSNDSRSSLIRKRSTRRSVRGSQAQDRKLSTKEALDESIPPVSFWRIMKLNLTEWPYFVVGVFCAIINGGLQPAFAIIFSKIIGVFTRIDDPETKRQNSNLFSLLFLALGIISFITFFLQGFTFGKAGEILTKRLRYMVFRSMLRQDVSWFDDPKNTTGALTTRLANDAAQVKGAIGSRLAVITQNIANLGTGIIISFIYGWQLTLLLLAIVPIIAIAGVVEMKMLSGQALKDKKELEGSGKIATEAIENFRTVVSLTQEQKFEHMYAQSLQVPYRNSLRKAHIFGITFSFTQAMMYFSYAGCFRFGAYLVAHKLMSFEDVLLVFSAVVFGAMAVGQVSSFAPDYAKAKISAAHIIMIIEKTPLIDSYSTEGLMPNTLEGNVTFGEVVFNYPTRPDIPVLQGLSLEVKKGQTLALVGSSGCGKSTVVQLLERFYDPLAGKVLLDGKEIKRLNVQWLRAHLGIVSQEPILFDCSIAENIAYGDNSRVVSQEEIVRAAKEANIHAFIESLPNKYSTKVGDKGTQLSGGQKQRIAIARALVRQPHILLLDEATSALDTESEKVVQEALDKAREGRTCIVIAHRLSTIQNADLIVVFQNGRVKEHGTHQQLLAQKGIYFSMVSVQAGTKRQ

SMILES	Prostaglandin E (2) production ([1]; 50 μM)	Compartments in which glucuronide metabolites were found (Caco-2 cells [2])	Nitric oxide production ([3]; 50 μM)	Concentration dependency of uptake (Caco-2 cell monolayers; 10–100 μM)	Permeation rates at 37 °C compared with 4 °C (Caco-2 cell monolayers)	Papp at 90 min [4, 12]	Papp at 90 min [4, 13]	Fraction of the ingested dose found in human blood [5]	Concentration that significantly inhibited P-gp activity [6]	Concentrations significantly cytotoxic to Caco-2 cells (Caco-2 cells [9])	further results
C/C=C\C=C/CC/C=C/C=C/C(=O)NCC(C)C [Bauer alkamide 8, (2E,4E,8Z,10Z)-N-isobutyldodeca-2,4,8,10-tetraenamide]	significantly decrease	only in the apical side	significantly decrease	increased linearly and exhibited non-saturable transport	No significant differences	39.8 ± 13.4 ×10⁻⁶ cm/s	43.8 ± 11.2 ×10⁻⁶ cm/s	about 5%	175 µM	> 350 µM	Papp of Bauer alkamide 8 relative to Bauer alkamide 10 (Caco-2 cell monolayers; Table 2): ~ 2.5 ×; Papp of Bauer alkamide 8 relative to Bauer alkamide 11 (Caco-2 cell monolayers; Table 2): ~ 15 ×; Metabolites formed [7]: Monohydroxylated, monoepoxidized, and N-dealkylated metabolites; Glucuronide or sulfate metabolite in urine [8]: no glucuronide or sulfate metabolite was present
CCC/C=C\CC/C=C/C=C/C(=O)NCC(C)C [Bauer alkamide 10, (2E,4E,8Z)-N-isobutyldodeca-2,4,8-trienamide]	–	in the apical side and cell lysates	–	increased linearly and exhibited non-saturable transport	No significant differences	18.3 ± 5.9 ×10⁻⁶ cm/s	17.7 ± 8.8 ×10⁻⁶ cm/s	~1%	205 µM	–	–
CCCCCCC/C=C/C=C/C(=O)NCC(C)C [Bauer alkamide 11, (2E,4E)-N-isobutyldodeca-2,4-dienamide]	significantly decrease	in the basolateral side and cell lysates	significantly decrease	increased linearly and exhibited non-saturable transport	No significant differences	–	2.8 ± 1.5 ×10⁻⁶ cm/s	–	230 µM	> 460 µM	–
C/C=C\C#CC/C=C\CCCCCC(C)=O [Bauer ketone 24, pentadeca-(8Z, 13Z)-diene-11-yn-2-one]	–	–	–	–	–	–	–	–	–	> 990 µM	Prostaglandin E (2) production ([1]; 5 μM): significantly decrease; Metabolism when incubated with Bauer alkamides 8, 10 and 11 (Caco-2 cells [2]; 10–100 μM, data not shown): totally metabolized; Metabolism when administered as a single compound (Caco-2 cells [2]; Caco-2 cells): totally metabolized to more hydrophilic metabolites; Recovery relative to applied amount after β-glucuronidase treatment (Caco-2 cells [2]; contained in E. sanguinea and E. pallida extracts, basolaterally and in cell lysates): significantly increased; Nitric oxide production ([3]; 5 μM): significantly decrease; Detection of parent compound apically, basolaterally or in cell lysates (Caco-2 cell monolayers; applied as pure compound, 10–100 μM, any time point 15–90 min): not found; Recovered in the basolateral side (Caco-2 cell monolayers; compound as contained in the two Echinacea species extracts): About 5%; Papp at 90 min ([4]; Caco-2, pH 7.4, Papp from E. sanguinea or E. pallida extracts): 12 to 17 ×10⁻⁶ cm/s; Hydroperoxide intermediate formation, of the parent compound [10]: about 25%; Effect on P-gp activity ([6]; single compound, tested concentrations 1–250 μM): not active; Apparent permeability (Caco-2 monolayers): 10 ± 3 cm/s ×10^−6; Concentrations inhibiting P-gp [11]: 3 to 200 µg/mL
